Our source for the EC50 values is patent US9988379B2, “GPR40 receptor agonist, methods of preparing the same, and pharmaceutical compositions containing the same as an active agent” (LG CHEM, LTD., priority 2012, dated 2018).

T1 sequence (O14842 whole entry): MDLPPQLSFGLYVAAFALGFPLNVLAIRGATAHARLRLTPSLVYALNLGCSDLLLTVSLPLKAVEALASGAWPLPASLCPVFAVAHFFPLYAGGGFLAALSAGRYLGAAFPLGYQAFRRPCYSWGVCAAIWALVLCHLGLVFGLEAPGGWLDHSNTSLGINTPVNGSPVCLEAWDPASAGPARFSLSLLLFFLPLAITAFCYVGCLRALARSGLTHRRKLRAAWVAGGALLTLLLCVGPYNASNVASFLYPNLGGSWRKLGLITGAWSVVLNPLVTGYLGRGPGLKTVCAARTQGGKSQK

This experiment has as its target T1, human GPR40 (Homo sapiens, UniProt O14842).
T1 construct: expressed in transfected cells; host or cells: CHO-K1
The experiment can be described thus: Induction of Ca2+ (calcium flux assay) using human GPR40 expression cell line. In kind it is cell-based. To be noted: read-out: EC0.5. A digest of the protocol: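 Read-out is intracellular Ca2+ flux on FlexStation after test compounds (DMSO stocks diluted 200-fold in assay buffer) were added to dye-loaded human GPR40/CHO-K1 cells. Cells had been cultured 24 h, then incubated 1 h at 37° C with Calcium 5 dye, HBSS-HEPES pH 7.4; EC0.5 from concentration plot.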
In the case of `CC#C[C@@H](CC(=O)O)c1ccc(OCc2ccc3ccn(Cc4ccc(C)nc4)c3c2C)cc1` [Example 81, (S)-3-{4-[7-methyl-1-(6-methyl-pyridin-3-ylmethyl)-1H-indol-6-ylmethoxy]-phenyl}-hex-4-ynoic acid], the EC50 lay in the range of 1 to 50 nM.

On to `CC#C[C@@H](CC(=O)O)c1ccc(OCc2ccc3cnn(Cc4cnn(C)c4)c3c2)cc1` [Example 82, (S)-3-{4-[1-(1-methyl-1H-pyrazol-4-ylmethyl)-1H-indazol-6-ylmethoxy]-phenyl}-hex-4-ynoic acid], for which the EC50 is 50 to 500 nM. In the case of `Cc1c(COc2ccc([C@H](CC(=O)O)c3ccon3)cc2)ccc2ccn(Cc3ccccc3)c12` [Example 83, (S)-3-[4-(1-benzyl-7-methyl-1H-indol-6-ylmethoxy)-phenyl]-3-isoxazol-3-yl-propanoic acid] it was 10 nM; in that of `Cc1c(COc2ccc([C@H](CC(=O)O)c3ccon3)cc2)ccc2ccn(Cc3ccc(F)cc3)c12` [Example 84, (S)-3-{4-[1-(4-fluoro-benzyl)-7-methyl-1H-indol-6-ylmethoxy]-phenyl}-3-isoxazol-3-yl-propanoic acid], 50 nM; in that of `O=C(O)C[C@@H](c1ccc(OCc2ccc3cnn(Cc4ccccc4)c3c2)cc1)c1ccon1` [Example 85, (S)-3-[4-(1-benzyl-1H-indazol-6-ylmethoxy)-phenyl]-3-isoxazol-3-yl-propanoic acid], 10 nM.

For the compound `O=C(O)C[C@@H](c1ccc(OCc2ccc3cnn(Cc4ccc(F)cc4)c3c2)cc1)c1ccon1` [Example 86, (S)-3-{4-[1-(4-fluoro-benzyl)-1H-indazol-6-ylmethoxy]-phenyl}-3-isoxazol-3-yl-propanoic acid], the EC50 came out at 10 nM. Next, `CC(C)Cn1ncc2ccc(COc3ccc([C@H](CC(=O)O)c4ccon4)cc3)cc21` [Example 87, (S)-3-[4-(1-isobutyl-1H-indazol-6-ylmethoxy)-phenyl]-3-isoxazol-3-yl-propanoic acid]: 10 nM; `CC(C)Cn1cc2ccc(COc3ccc([C@H](CC(=O)O)c4ccon4)cc3)cc2n1` [Example 88, (S)-3-[4-(2-isobutyl-2H-indazol-6-ylmethoxy)-phenyl]-3-isoxazol-3-yl-propanoic acid]: 400 nM. In the case of `Cc1c(COc2ccc([C@H](CC(=O)O)c3ccon3)cc2)ccc2ccn(Cc3cnccn3)c12` [Example 89, (S)-3-isoxazol-3-yl-3-[4-(7-methyl-1-pyrazin-2-ylmethyl-1H-indol-6-ylmethoxy)-phenyl]-propanoic acid] it was 30 nM; in that of `CC#C[C@@H](CC(=O)O)c1ccc(OCc2ccc3ccn(Cc4ccccc4)c3n2)cc1` [Example 90, (S)-3-[4-(1-benzyl-1H-pyrrolo[2,3-b]pyridin-6-ylmethoxy)-phenyl]-hex-4-ynoic acid], 10 nM. Next, `O=C(O)C[C@@H](c1ccc(OCc2ccc3ccn(Cc4ccccc4)c3n2)cc1)c1ccon1` [Example 91, (S)-3-[4-(1-benzyl-1H-pyrrolo[2,3-b]pyridin-6-ylmethoxy)-phenyl]-3-isoxazol-3-yl-propanoic acid]: 30 nM; `Cc1cnc(Cn2ccc3ccc(COc4ccc([C@H](CC(=O)O)c5ccon5)cc4)c(C)c32)cn1` [Example 92, (S)-3-isoxazol-3-yl-3-{4-[7-methyl-1-(5-methyl-pyrazin-2-ylmethyl)-1H-indol-6-ylmethoxy]-phenyl}-propanoic acid]: 1 to 50 nM; `CC#C[C@@H](CC(=O)O)c1ccc(OCc2ccc3cnn(Cc4ccc(C)nc4)c3c2)cc1` [Example 93, (S)-3-{4-[1-(6-methyl-pyridin-3-ylmethyl)-1H-indazol-6-ylmethoxy]-phenyl}-hex-4-ynoic acid]: 50 to 500 nM.

With `O=C(O)C[C@@H](c1ccc(OCc2cccc3c2cnn3Cc2ccccc2)cc1)c1ccon1` [Example 94, (S)-3-[4-(1-benzyl-1H-indazol-4-ylmethoxy)-phenyl]-3-isoxazol-3-yl-propanoic acid], the EC50 was 60 nM. In the case of `O=C(O)C[C@@H](c1ccc(OCc2ccc3ccn(Cc4ccc(F)cc4)c3n2)cc1)c1ccon1` [Example 95, (S)-3-{4-[1-(4-fluoro-benzyl)-1H-pyrrolo[2,3-b]pyridin-6-ylmethoxy]-phenyl}-3-isoxazol-3-yl-propanoic acid], the EC50 stood at 100 nM. Next, `CC(C)n1ncc2ccc(COc3ccc([C@H](CC(=O)O)c4ccon4)cc3)cc21` [Example 96, (S)-3-[4-(1-isopropyl-1H-indazol-6-ylmethoxy)-phenyl]-3-isoxazol-3-yl-propanoic acid]: 30 nM. In the case of `O=C(O)C[C@@H](c1ccc(OCc2ccc3cnn(CC4CC4)c3c2)cc1)c1ccon1` [Example 97, (S)-3-[4-(1-cyclopropylmethyl-1H-indazol-6-ylmethoxy)-phenyl]-3-isoxazol-3-yl-propanoic acid] it was 50 nM; in that of `CC(C)Cn1ccc2ccc(COc3ccc([C@H](CC(=O)O)c4ccon4)cc3)nc21` [Example 98, (S)-3-[4-(1-isobutyl-1H-pyrrolo[2,3-b]pyridin-6-ylmethoxy)-phenyl]-3-isoxazol-3-yl-propanoic acid], 1 to 50 nM; in that of `CC(C)n1cc2ccc(COc3ccc([C@H](CC(=O)O)c4ccon4)cc3)cc2n1` [Example 99, (S)-3-[4-(2-isopropyl-2H-indazol-6-ylmethoxy)-phenyl]-3-isoxazol-3-yl-propanoic acid], 1300 nM. For `CC(C)n1ncc2ccc(COc3ccc4c(c3)OCC4CC(=O)O)cc21` (stereo not shown) [Example 100, [6-(1-isopropyl-1H-indazol-6-ylmethoxy)-2,3-dihydro-benzofuran-3-yl]-acetic acid], the EC50 is 600 nM. Take `Cn1ncc2ccc(COc3ccc([C@H](CC(=O)O)c4ccon4)cc3)cc21` [Example 101, (S)-3-isoxazol-3-yl-3-[4-(1-methyl-1H-indazol-6-ylmethoxy)-phenyl]-propanoic acid]: the EC50 worked out at 90 nM.

In the case of `O=C(O)C[C@@H](c1ccc(OCc2ccc3cn[nH]c3c2)cc1)c1ccon1` [Example 102, (S)-3-[4-(1H-indazol-6-ylmethoxy)-phenyl]-3-isoxazol-3-yl-propanoic acid], the EC50 amounted to 400 nM. Next, `O=C(O)C[C@@H](c1ccc(OCc2ccc3cnn(CC4CCCC4)c3c2)cc1)c1ccon1` [Example 103, (S)-3-[4-(1-cyclopentylmethyl-1H-indazol-6-ylmethoxy)-phenyl]-3-isoxazol-3-yl-propanoic acid]: 10 nM. In the case of `O=C(O)CC1COc2cc(OCc3ccc4cnn(Cc5ccccc5)c4c3)ccc21` (stereo not shown) [Example 105, [6-(1-benzyl-1H-indazol-6-ylmethoxy)-2,3-dihydro-benzofuran-3-yl]-acetic acid] it was 400 nM; in that of `O=C(O)CCc1ccc(OCc2ccc3cnn(Cc4ccccc4)c3c2)cc1F` [Example 106, 3-[4-(1-benzyl-1H-indazol-6-ylmethoxy)-2-fluoro-phenyl]-propanoic acid], 1 to 50 nM. Next, `O=C(O)CCc1ccc(OCc2ccc3cnn(CC4CCCC4)c3c2)cc1F` [Example 107, 3-[4-(1-cyclopentylmethyl-1H-indazol-6-ylmethoxy)-2-fluoro-phenyl]-propanoic acid]: 200 nM; `O=C(O)CC1CCc2cc(OCc3ccc4cnn(Cc5ccccc5)c4c3)ccc21` (stereo not shown) [Example 109, [5-(1-benzyl-1H-indazol-6-ylmethoxy)-indan-1-yl]-acetic acid]: 400 nM. For `O=C(O)CC1CCCc2cc(OCc3ccc4cnn(Cc5ccccc5)c4c3)ccc21` (stereo not shown) [Example 110, [6-(1-benzyl-1H-indazol-6-ylmethoxy)-1,2,3,4-tetrahydro-naphthalen-1-yl]-acetic acid], the EC50 stood at 200 nM.

For `CC#C[C@@H](CC(=O)O)c1ccc(OCc2ccc3c(cnn3Cc3ccccc3)c2)cc1` [Example 111, (S)-3-[4-(1-benzyl-1H-indazol-5-ylmethoxy)-phenyl]-hex-4-ynoic acid], the EC50 fell in the range of 1 to 50 nM. In the case of `CC#C[C@@H](CC(=O)O)c1ccc(OCc2ccc3nn(Cc4ccccc4)cc3c2)cc1` [Example 112, (S)-3-[4-(2-benzyl-2H-indazol-5-ylmethoxy)-phenyl]-hex-4-ynoic acid] it was 1 to 50 nM.

`O=C(O)CC1COc2cc(OCc3ccc4cn(Cc5ccccc5)nc4c3)ccc21` (stereo not shown) [Example 113, [6-(2-benzyl-2H-indazol-6-ylmethoxy)-2,3-dihydro-benzofuran-3-yl]-acetic acid]: the EC50 came to 9100 nM. In the case of `CC#C[C@@H](CC(=O)O)c1ccc(OCc2ccc3cnn(CC(C)C)c3c2)cc1` [Example 114, (S)-3-[4-(1-isobutyl-1H-indazol-6-ylmethoxy)-phenyl]-hex-4-ynoic acid] it was 1 to 50 nM; in that of `CC#C[C@@H](CC(=O)O)c1ccc(OCc2ccc3ccn(CC(C)C)c3n2)cc1` [Example 115, (S)-3-[4-(1-isobutyl-1H-pyrrolo[2,3-b]pyridin-6-ylmethoxy)-phenyl]-hex-4-ynoic acid], 1 to 50 nM. Consider `CC#C[C@@H](CC(=O)O)c1ccc(OCc2ccc3c(cnn3C(C)C)c2)cc1` [Example 116, (S)-3-[4-(1-isopropyl-1H-indazol-5-ylmethoxy)-phenyl]-hex-4-ynoic acid], for which the EC50 lay in the range of 1 to 50 nM. In the case of `CC(CC(=O)O)c1ccc(OCc2ccc3cnn(Cc4ccccc4)c3c2)cc1` (stereo not shown) [Example 117, 3-[4-(1-benzyl-1H-indazol-6-ylmethoxy)-phenyl]-butyric acid] it was 50 nM; in that of `O=C(O)CC1CCc2cc(OCc3ccc4c(cnn4Cc4ccccc4)c3)ccc21` (stereo not shown) [Example 118, [5-(1-benzyl-1H-indazol-5-ylmethoxy)-indan-1-yl]-acetic acid], 200 nM; in that of `O=C(O)CC1CCCc2cc(OCc3ccc4c(cnn4Cc4ccccc4)c3)ccc21` (stereo not shown) [Example 119, [6-(1-benzyl-1H-indazol-5-ylmethoxy)-1,2,3,4-tetrahydro-naphthalen-1-yl]-acetic acid], 60 nM.
